Source: PubChem BioAssay AID2060498 (Molecular Pharmacology Branch, DTP, NCI, 2025)

Tested on: 171881-019-R-J1-PDC tumor spheroids, viability
Test: Anticancer human tumor 171881-019-R-J1-PDC patient-derived invasive breast carcinoma cell line growth inhibition [GQUAD]
Details: spheroids with HUVEC and MSC; for IC50: curve of first compound; for viability, T/C: stronger effect = lower value
From the text: DNA G-quadruplex Stabilizer Agents in Combinations in Complex Spheroids
A high-throughput screen of multi-cell type tumor spheroids was designed to identify active combinations of DNA G-quadruplex stabilizer agents and targeted small molecules. Complex spheroids include a stromal component modeled by human endothelial cells (HUVEC) and fibroblasts modeled by human mesenchymal stem cells (MSCs). The concentration ranges selected for each drug and investigational agent were based upon clinically achievable concentrations if the clinical Cmax of the agent was known.
Compounds. The drugs and investigational agents: pidnarulex (CX-5461; NSC782164), APTO-253 (NSC789042), BRACO-19 (NSC847499), peposertib (NSC802822), ceralasertib (NSC780249), elimusertib (NSC800525), camonsertib (NSC841442), AZD-1390 (NSC803789), olaparib (NSC753686), talazoparib (NSC767125), ART-558 (NSC835418), sotorasib (NSC818433), MRTX-1133 (NSC836407), SN-38 (NSC673596), topotecan (NSC609699), etoposide (NSC141540), doxorubicin (NSC123127), gemcitabine (NSC613327), 5-fluorouracil (NSC19893), paclitaxel (NSC125973), vemurafenib (NSC761431), panobinostat (NSC761190), R-306465 (JNJ-16241199; NSC773264), adavosertib (NSC754352), TP-3654 (NSC805149), carboplatin (NSC241240), KSQ-4279 (NSC840948), and staurosporine (NSC755774) were obtained from the National Cancer Institute (NCI) Developmental Therapeutics Program Chemical Repository (34). The FDA-approved anticancer drug set is available from the NCI Developmental Therapeutics Program. […] The stock solutions were prepared in dimethyl sulfoxide (DMSO, Sigma-Aldrich, St. Louis, MO, cat. D2650) at 800-fold the tested concentration and stored at -70 degrees C prior to their use. All drugs and investigational agents were tested over a range starting from a high concentration at or near the clinical Cmax and decreasing in half-log increments. If the clinical Cmax for an agent had not been determined, the highest concentration tested was 10 microM.
2.3 Cell Culture. All cells were maintained in an incubator at 37 degrees C and 5% CO2 with 95% humidity. The PDC lines were cultured according to standard operating procedures established by the NCI PDMR. All PDCs were thawed and cultured in Matrigel-coated flasks prepared with a working solution of 1X Ham's F-12 nutrient mix, without supplementation (Invitrogen, cat. 11765054), 100 U/mL penicillin-streptomycin (Invitrogen, cat. 15140122), and 2.5% Matrigel (Corning Inc., cat. 354248) for the first three passages. The 857933-349-R-J2-PDC line was cultured in 6C/Colon 1B media, which includes advanced DMEM/F-12 (Thermo Fisher Scientific, cat. 12634028), 10 mM HEPES (Thermo Fisher Scientific, cat. 15630080), 1X GlutaMAX supplement (Thermo Fisher Scientific, cat. 35050061), 0.1 mg/mL primocin (InvivoGen, cat. ant-pm-2), 10% defined fetal bovine serum, heat inactivated (HyClone Laboratories Inc., cat. SH30070.03HI), 50% L-WRN conditioned media (ATCC, cat. CRL-3276), 1.25 mM N-Acetyl-L-cysteine (Sigma-Aldrich, cat. A9165), 10 mM nicotinamide (Sigma-Aldrich, cat. N0636), 1X B-27 supplement (Thermo Fisher Scientific, cat. 17504044), 1X N-2 supplement (Thermo Fisher Scientific, cat. 17502048), 10 microM Y-27632 dihydrochloride (Tocris Bioscience, cat. 1254), and 50 ng/mL human EGF recombinant protein (Thermo Fisher Scientific, cat. PHG0311). The 485176-168-R4-J1-PDC line was cultured in Panc media, which includes all 6C/Colon 1B media components plus 100 ng/mL human FGF-10 (Thermo Fisher Scientific, cat. 100-26), 500 nM SB-431542 (Selleckchem, cat. S1067), and gastrin (Tocris, cat. 3006).
[…]

[1] = second compound 0.0316 µM, first compound 0.0316 µM
[2] = second compound 0.0316 µM, first compound 0.1 µM
[3] = second compound 0.0316 µM, first compound 0.316 µM
[4] = second compound 0.0316 µM, first compound 1 µM
[5] = second compound 0.0316 µM, first compound 3.16 µM
[6] = second compound 0.0316 µM, first compound 10 µM
[7] = second compound 0.1 µM, first compound 0.0316 µM
[8] = second compound 0.1 µM, first compound 0.1 µM
[9] = second compound 0.1 µM, first compound 0.316 µM
[10] = second compound 0.1 µM, first compound 1 µM
[11] = second compound 0.1 µM, first compound 3.16 µM
[12] = second compound 0.1 µM, first compound 10 µM
[13] = second compound 0.316 µM, first compound 0.0316 µM
[14] = second compound 0.316 µM, first compound 0.1 µM
[15] = second compound 0.316 µM, first compound 0.316 µM
[16] = second compound 0.316 µM, first compound 1 µM
[17] = second compound 0.316 µM, first compound 3.16 µM
[18] = second compound 0.316 µM, first compound 10 µM
[19] = second compound 1 µM, first compound 0.0316 µM
[20] = second compound 1 µM, first compound 0.1 µM
[21] = second compound 1 µM, first compound 0.316 µM
[22] = second compound 1 µM, first compound 1 µM
[23] = second compound 1 µM, first compound 3.16 µM
[24] = second compound 1 µM, first compound 10 µM
[25] = second compound 3.16 µM, first compound 0.0316 µM
[26] = second compound 3.16 µM, first compound 0.1 µM
[27] = second compound 3.16 µM, first compound 0.316 µM
[28] = second compound 3.16 µM, first compound 1 µM
[29] = second compound 3.16 µM, first compound 3.16 µM
[30] = second compound 3.16 µM, first compound 10 µM
[31] = second compound 10 µM, first compound 0.0316 µM
[32] = second compound 10 µM, first compound 0.1 µM
[33] = second compound 10 µM, first compound 0.316 µM
[34] = second compound 10 µM, first compound 1 µM
[35] = second compound 10 µM, first compound 3.16 µM
[36] = second compound 10 µM, first compound 10 µM
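Note: spheroids exposed to compounds for 7 days.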
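Throughout, for viability, T/C: 100% = DMSO vehicle control viability.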

SMILES: C=CCn1c(=O)c2cnc(Nc3ccc(N4CCN(C)CC4)cc3)nc2n1-c1cccc(C(C)(C)O)n1 + CN(C)c1ccc(Nc2c3ccc(NC(=O)CCN4CCCC4)cc3nc3cc(NC(=O)CCN4CCCC4)ccc23)cc1
- IC50 (second compound 0.0316 µM): 783 nM
- IC50 (second compound 0.1 µM): 707 nM
- IC50 (second compound 0.316 µM): < 31.6 nM
- IC50 (second compound 1 µM): < 31.6 nM
- IC50 (second compound 3.16 µM): < 31.6 nM
- IC50 (second compound 10 µM): < 31.6 nM
- viability, T/C [1]: 105%
- viability, T/C [2]: 86.5%
- viability, T/C [3]: 87.6%
- viability, T/C [4]: 40%
- viability, T/C [5]: 21.3%
- viability, T/C [6]: 23.7%
- viability, T/C [7]: 106%
- viability, T/C [8]: 99%
- viability, T/C [9]: 66.8%
- viability, T/C [10]: 45.5%
- viability, T/C [11]: 24.1%
- viability, T/C [12]: 27.5%
- viability, T/C [13]: 39.8%
- viability, T/C [14]: 38.4%
- viability, T/C [15]: 36.4%
- viability, T/C [16]: 15.2%
- viability, T/C [17]: 16.5%
- viability, T/C [18]: 9.97%
- viability, T/C [19]: 3.15%
- viability, T/C [20]: 2.55%
- viability, T/C [21]: 3.78%
- viability, T/C [22]: 2.12%
- viability, T/C [23]: 1.52%
- viability, T/C [24]: 1.18%
- viability, T/C [25]: 0.41%
- viability, T/C [26]: 0.2%
- viability, T/C [27]: 0.36%
- viability, T/C [28]: 0.19%
- viability, T/C [29]: 0.51%
- viability, T/C [30]: 0.13%
- viability, T/C [31]: 0.13%
- viability, T/C [32]: 0.12%
- viability, T/C [33]: 0.54%
- viability, T/C [34]: 0.29%
- viability, T/C [35]: 0.16%
- viability, T/C [36]: 0.14%

SMILES: CC(C)(O)C1CCC(Nc2ccc3ncc(-c4cccc(C(F)(F)F)c4)n3n2)CC1 (centres undefined) + CN(C)c1ccc(Nc2c3ccc(NC(=O)CCN4CCCC4)cc3nc3cc(NC(=O)CCN4CCCC4)ccc23)cc1
- IC50 (second compound 0.0316 µM): 1860 nM
- IC50 (second compound 0.1 µM): 1840 nM
- IC50 (second compound 0.316 µM): < 31.6 nM
- IC50 (second compound 1 µM): < 31.6 nM
- IC50 (second compound 3.16 µM): < 31.6 nM
- IC50 (second compound 10 µM): < 31.6 nM
- viability, T/C [1]: 99.9%
- viability, T/C [2]: 103%
- viability, T/C [3]: 102%
- viability, T/C [4]: 73.8%
- viability, T/C [5]: 30%
- viability, T/C [6]: 25.6%
- viability, T/C [7]: 94.5%
- viability, T/C [8]: 99.5%
- viability, T/C [9]: 101%
- viability, T/C [10]: 77.1%
- viability, T/C [11]: 24.3%
- viability, T/C [12]: 27.6%
- viability, T/C [13]: 43.7%
- viability, T/C [14]: 47.2%
- viability, T/C [15]: 39.3%
- viability, T/C [16]: 22.2%
- viability, T/C [17]: 9.07%
- viability, T/C [18]: 6.72%
- viability, T/C [19]: 3.24%
- viability, T/C [20]: 2.74%
- viability, T/C [21]: 3.28%
- viability, T/C [22]: 1%
- viability, T/C [23]: 0.4%
- viability, T/C [24]: 0.21%
- viability, T/C [25]: 0.19%
- viability, T/C [26]: 0.18%
- viability, T/C [27]: 0.29%
- viability, T/C [28]: 0.13%
- viability, T/C [29]: 0.43%
- viability, T/C [30]: 0.14%
- viability, T/C [31]: 0.15%
- viability, T/C [32]: 0.47%
- viability, T/C [33]: 0.23%
- viability, T/C [34]: 0.13%
- viability, T/C [35]: 0.32%
- viability, T/C [36]: 0.17%
